Reference: US10231985B2, “Compounds and compositions comprising such compounds for the prevention or treatment of dyslipidaemias” (CENTRE NATIONAL DE LA RECHERCHE SCIENTIFIQUE, priority 2013, dated 2019)

Tests used:
[1] = tested on: phospholipids of the cellular membranes (hem1Δ strain); assay: Fatty acid content of cellular phospholipids (lipid extraction, ESI-MS); assay type: cell-based, Saccharomyces cerevisiae
Protocol: The hem1Δ strain is grown in liquid medium (YPG^A, YPG^+, or YPG^++200 μM compound to be tested) under aerobic conditions, with shaking and at 28° C. for 7 hours, from an initial cell concentration of 2×10^6 cells/ml. At the conclusion of the culture, 10^8 cells are collected in order to carry out a total lipid extraction. After having suspended the cells in 1 ml of distilled water at 4° C., 500 μl of glass beads (Ø 0.6 mm) are added and the whole then undergoes 3 sequences of 20 seconds at 5000 rpm in a shaker (the tubes are kept on ice between each of the 3 sequences). The cell lysate then obtained, supplemented with bead-washing solution (1 ml), is then transferred to a 40 ml glass tube (Corex™) before carrying out the lipid extraction using a 2:1 (v/v) methanol:chloroform ratio. First, 6 ml of methanol is added and the whole is vortexed for 30 seconds and then incubated for 15 minutes at 65° C. Once the mixture cools to room temperature, 3 ml of chloroform is added and then the whole is vortexed again for 30 seconds before allowing the extraction to proceed for 16 hours. Later, the sample is centrifuged for 12 minutes at 10000 g before transferring the supernatant to a new Corex™ tube. After adding 2 ml of chloroform and then 4 ml of distilled water, the whole is vortexed for 30 seconds and then centrifuged for 8 minutes at 3000 g. After removing the resulting upper phase, the lower organic phase is collected in a glass hemolysis tube. Finally, the solvent is evaporated under a stream of nitrogen at 80° C. in order to obtain the total cellular lipid samples.
The total cellular lipid samples are resuspended in 1 ml of dichloromethane while being vortexed for 30 seconds. The whole is deposited on a silica column (BOND ELUT-SI, 100 mg 1 ml) preconditioned successively with 3 ml of methanol and then 2 ml of dichloromethane. The fraction retained by the column is then washed successively with 2 ml of dichloromethane and then 3 ml of acetone. Finally, 2 ml of a 50:45:5 (v/v/v) chloroform/methanol/water mixture is deposited on the column and the phospholipids thus eluted are collected in a glass hemolysis tube. The solvent is evaporated under nitrogen at 80° C. in order to obtain the cellular phospholipid samples.
Once resuspended in 100 μl of the mixture Mix^− (2:1:1 (v/v/v) isopropanol/acetonitrile/water+1% (v/v) triethylamine) or the mixture Mix^+ (2:1:1 (v/v/v) isopropanol/acetonitrile/water+1% (v/v) formic acid), the samples are analyzed by electrospray ionization mass spectrometry (ESI-MS) in negative or positive mode, respectively, and the results obtained are used to analyze the fatty acid content of the various phospholipid species.

[2] = tested on: unfolded protein response (UPR); assay: Test of UPR triggering (4xUPRE-lacZ, β-galactosidase activity) in hem1Δ yeast; assay type: cell-based, Saccharomyces cerevisiae; details: 200 μM, liquid medium inducing SFA accumulation
Excerpt: A plasmid construction bearing a fusion gene, corresponding to the coding sequence of the lacZ gene placed under the control of an artificial promoter containing four UPR elements (UPRE), was introduced into a hem1Δ yeast strain, as described by Pineau et al. (2009). During UPR induction, the transcription factor Hac1p/XBP1p is activated and binds to the fusion gene UPRE, leading to the transcription of the lacZ gene. As lacZ encodes β-galactosidase, the level of UPR induction is thus measured by detecting the corresponding enzyme activity. The hem1Δ yeast strain was grown in liquid medium inducing SFA accumulation with no other addition (0), or in the same medium supplemented with 200 μM oleic acid, OAG or LPA, as indicated.
The hem1Δ strain transformed by the plasmid pPW344 [2μ URA3 4×UPRE-lacZ (Patil et al., 2004)] is grown in liquid medium (YPG^A, YPG, or YPG+200 μM compound to be tested), under aerobic conditions, with shaking at 28° C. for 7 hours, from an initial cell concentration of 2×10^6 cells/ml. At the conclusion of the culture, 10^8 cells are collected in order to quantify the β-galactosidase (β-gal) activity resulting from the expression of the lacZ transgene (in the case of UPR activation). […] For each sample, β-gal activity (U) is calculated using the formula U=(1000×[OD420 nm−(1.75×OD550 nm)])/(t×V×OD600 nm), expressed in arbitrary units.

Compound | Effect on fatty acid composition of membrane phospholipids [1] | UPR induction level (β-galactosidase activity) [2]
CCCCCCCC/C=C\CCCCCCCC(=O)OC[C@H](CO)OC(C)=O [OAG, 1-oleoyl-2-acetyl-sn-glycerol] | without restoring a normal diunsaturated phospholipid composition | reduce the unfolded protein response (UPR)
CCCCCCCC/C=C\CCCCCCCC(=O)OC[C@@H](O)COP(=O)(O)O [LPA, 1-oleoyl-sn-glycerol-3-phosphate] | act directly on lipid content | reduce the unfolded protein response (UPR)
